The values below come from ChEMBL document CHEMBL1128836, “Synthesis of prodrugs and a mutual prodrug of chlorzoxazone and acetaminophen based on a masked benzoxazolone” (Bioorg Med Chem Lett, 1995).

Series [1] is described as follows: Half life period in phosphate buffer at pH 7.4. It is filed as ADME. As to conditions: for T1/2: buffer.
The species named for series [2] is Homo sapiens. Briefly: Half life period in human plasma at 25 degree Celsius temperature (pH 7.4).
Series [3] is described as follows: Half life period in rat plasma at 25 degree Centigrade temperature (pH 7.4). In kind it is ADME, organism-based.
The nature of series [4]: Half life period in phosphate buffer at pH 7.4 & 25 degrees C. In kind it is ADME.
A short description of series [5]: Half life period in rat plasma at 37 degree Celsius temperature (pH 7.4). It is filed as ADME, organism-based.
The species entered for series [6] is Homo sapiens. The experiment in a line: Half life period in human plasma at 37 degree Celsius temperature (pH 7.4).

The structures appear in SMILES notation.

`CC#CCOC(=O)Nc1cc(Cl)ccc1O`: the half-life (usually how long it takes for the measured level to halve) in series [1] (phosphate buffer) is 566 min. The same measure, in the same setting: next, `O=C(Nc1cc(Cl)ccc1O)Oc1ccccc1`: 0.2 min. In turn, `CC(=O)Nc1cccc(OC(=O)Nc2cc(Cl)ccc2O)c1` had a half-life in series [1] (phosphate buffer) of 0.125 min. This half-life lies about 1.6-fold lower than the previous one.

`O=C(Nc1cc(Cl)ccc1O)Oc1cccc(Cl)c1`: in series [1], the T1/2 came out at 0.0633 min. On to `CC(=O)Nc1ccc(OC(=O)Nc2cc(Cl)ccc2O)cc1`, for which the half-life in the series filed under Homo sapiens [2] is 1.1 min; in series [1] (phosphate buffer), 0.118 min; in series [3] it was 0.833 min; in series [4], 0.6 min. As for `O=C(Nc1cc(Cl)ccc1O)OCC(Cl)Cl`, the values for the half-life (in series [1]; in series [5]; in the series filed under Homo sapiens [6]) were 42.4 min, 53.8 min and 105 min, respectively. Take `O=C(Nc1cc(Cl)ccc1O)OCC(F)(F)F`: the half-life in series [1] is 2.58 min. Compound `C#CCOC(=O)Nc1cc(Cl)ccc1O` had a half-life in series [1] (phosphate buffer) of 108 min. Regarding `O=C(Nc1cc(Cl)ccc1O)OCC(Cl)(Cl)Cl`, the half-life in series [1] is 3.2 min; in series [5] it was 7.5 min; in the series listed under Homo sapiens [6] it was 10.1 min. Compound `O=C(Nc1cc(Cl)ccc1O)OCCCl` showed a half-life in series [1] (phosphate buffer) of 1310 min. The compound `O=C(Nc1cc(Cl)ccc1O)Oc1cccc(C(F)(F)F)c1` had a T1/2 in series [1] of 0.0517 min.
